The values that follow are results of earlier work, collected in patent publication US20140356497A1, “Composition” (Natural Biotechnology SPRL, priority 2011, published 2014).

The data set relates to Red Delicious apples. The settings on record: 0.25% calcium ascorbate; considered unsatisfactory.

Take calcium ascorbate: the “time for which Red Delicious apples are preserved” value was not above 1 h.
